≈ marks a conversion by molar mass, not a printed value. Where two headings read alike, the source gives them in different places.
Key:
Format in all cases: cell-based
[1] = tested on: Haemophilus influenzae 1218; assay: MIC, microtiter broth dilution (NCCLS M100-S14), H. influenzae 1218 (susceptible)
Method in brief: (§1)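 Stock solutions of 40 mg/ml in DMSO were used. MIC values came from microtiter-tray broth dilution following NCCLS M100-S14 guidelines.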

[2] = tested on: Streptococcus pyogenes 1079; assay: MIC, microtiter broth dilution (NCCLS M100-S14), S. pyogenes 1079 (ermB)
Method in brief: as §1

[3] = tested on: Streptococcus pneumoniae 1016; assay: MIC, microtiter broth dilution (NCCLS M100-S14), S. pneumoniae 1016 (susceptible)
Method in brief: as §1

[4] = tested on: Streptococcus pneumoniae 1095; conditions: microtiter broth dilution
Method in brief: as §1

[5] = tested on: Streptococcus pneumoniae 1175; conditions: microtiter broth dilution
Method in brief: as §1

[6] = H. influenzae 1218 (susceptible)
[7] = S. pneumoniae 1016 (susceptible)

| SMILES | MIC H. influenzae 1218 ([1]; Haemophilus influenzae 1218) | MIC S. pyogenes 1079 ([2]; Streptococcus pyogenes 1079) | MIC S. pneumo. 1016 ([3]; Streptococcus pneumoniae 1016) | MIC S. pneumo. 1095 ([4]; Streptococcus pneumoniae 1095) | MIC S. pneumo. 1175 ([5]; Streptococcus pneumoniae 1175) | MIC H. influenzae 1218 [1, 6] | MIC S. pyogenes 1079 ([2]; S. pyogenes 1079 (ermB)) | MIC S. pneumo. 1016 [3, 7] | MIC S. pneumo. 1095 ([4]; S. pneumoniae 1095 (ermB)) | MIC S. pneumo. 1175 ([5]; S. pneumoniae 1175 (mefA)) |
| --- | --- | --- | --- | --- | --- | --- | --- | --- | --- | --- |
| CCC1OC(=O)C(C)C(=O)C(C)C(OC2OC(C)CC(N(C)C)C2O)C(C)(OC)CC(C)C(=O)C(C)C2N(C3CN(Cc4ccc5nc(C)sc5n4)C3)C(=O)OC12C (stereo not shown) [Example 1.34, (2-methyl-thiazolo[5,4-b]pyridin-5-yl)methyl] | 0.5 µg/mL (≈ 0.602 µM) | 32 µg/mL (≈ 38.6 µM) | <0.06 µg/mL | <0.06 µg/mL | 0.12 µg/mL (≈ 0.145 µM) |  |  |  |  |  |
| CCC1OC(=O)C(C)C(=O)C(C)C(OC2OC(C)CC(N(C)C)C2O)C(C)(OC)CC(C)C(=O)C(C)C2N(C3CN(C(c4ccccc4)c4cccnc4)C3)C(=O)OC12C (single isomer, unassigned) [Example 1.66, phenyl-(pyridin-3-yl)methyl (*)] | 2 µg/mL (≈ 2.4 µM) | 64 µg/mL (≈ 76.6 µM) | <0.06 µg/mL | 0.5 µg/mL (≈ 0.599 µM) | <0.06 µg/mL |  |  |  |  |  |
| CCC1OC(=O)C(C)C(=O)C(C)C(OC2OC(C)CC(N(C)C)C2O)C(C)(OC)CC(C)C(=O)C(C)C2N(C3CN(S(=O)(=O)c4cccc(-c5ncon5)c4)C3)C(=O)OC12C (stereo not shown) [Example 3.41, 3-descladinosyl-11,12-dideoxy-6-O-methyl-3-oxo-12,11-(oxycarbonyl-(1-(3-(1,2,4-oxadiazol-3-yl)benzenesulfonyl)-azetidin-3-yl)-imino)-erythromycin A] | 0.25 µg/mL (≈ 0.285 µM) | 8 µg/mL (≈ 9.13 µM) | <0.06 µg/mL | <0.06 µg/mL | <0.06 µg/mL |  |  |  |  |  |
| CCC1OC(=O)C(C)C(=O)C(C)C(OC2OC(C)CC(N(C)C)C2O)C(C)(OC)CC(C)C(=O)C(C)C2N(C3CN(C(c4ccccc4)c4ccncc4)C3)C(=O)OC12C (single isomer, unassigned) [Example 1.68, phenyl-(pyridin-4-yl)methyl (*)] | 4 µg/mL (≈ 4.79 µM) | 32 µg/mL (≈ 38.3 µM) | <0.06 µg/mL | 4 µg/mL (≈ 4.79 µM) | <0.06 µg/mL |  |  |  |  |  |
| CCC1OC(=O)C(C)C(=O)C(C)C(OC2OC(C)CC(N(C)C)C2O)C(C)(OC)CC(C)C(=O)C(C)C2N(CC3CCN(Cc4ccc5ccccc5n4)C3)C(=O)OC12C (stereo not shown) [11.04] |  |  |  |  |  | 1 µg/mL (≈ 1.19 µM) | 64 µg/mL (≈ 76.5 µM) | <0.06 µg/mL | <0.06 µg/mL | 0.12 µg/mL (≈ 0.143 µM) |
| CCC1OC(=O)C(C)C(=O)C(C)C(OC2OC(C)CC(N(C)C)C2O)C(C)(OC)CC(C)C(=O)C(C)C2N(C3CN(S(=O)(=O)c4c(C)n[nH]c4C)C3)C(=O)OC12C (stereo not shown) [Example 3.29, 3-descladinosyl-11,12-dideoxy-6-O-methyl-3-oxo-12,11-(oxycarbonyl-(1-(3,5-dimethyl-1H-pyrazole-4-sulfony)-azetidin-3-yl)-imino)-erythromycin A] | 0.25 µg/mL (≈ 0.303 µM) | 8 µg/mL (≈ 9.68 µM) | <0.06 µg/mL | <0.06 µg/mL | 0.5 µg/mL (≈ 0.605 µM) |  |  |  |  |  |
| CCC1OC(=O)C(C)C(=O)C(C)C(OC2OC(C)CC(N(C)C)C2O)C(C)(OC)CC(C)C(=O)C(C)C2N(C3CN(S(=O)(=O)c4c[nH]c(=O)[nH]c4=O)C3)C(=O)OC12C (stereo not shown) [Example 3.30, 1,2,3,4-tetrahydro-2,4-dioxopyrimidine-5-sulfonyl] | 32 µg/mL (≈ 38 µM) | >64.00 µg/mL | 1 µg/mL (≈ 1.19 µM) | >64.00 µg/mL | 32 µg/mL (≈ 38 µM) |  |  |  |  |  |
| CCC1OC(=O)C(C)C(=O)C(C)C(OC2OC(C)CC(N(C)C)C2O)C(C)(OC)CC(C)C(=O)C(C)C2N(C3CCN(Cc4n[nH]c5ccccc45)C3)C(=O)OC12C [Example 9.09, 3-descladinosyl-11,12-dideoxy-6-O-methyl-3-oxo-12,11-(oxycarbonyl-(1-((1H-indazol-3-yl)-methyl)-(R)-pyrrolidin-3-yl)-imino)-erythromycin A] |  |  |  |  |  | 0.12 µg/mL (≈ 0.148 µM) | 2 µg/mL (≈ 2.46 µM) | <0.06 µg/mL | 0.25 µg/mL (≈ 0.308 µM) | 0.12 µg/mL (≈ 0.148 µM) |
| CCC1OC(=O)C(C)C(=O)C(C)C(OC2OC(C)CC(N(C)C)C2O)C(C)(OC)CC(C)C(=O)C(C)C2N(CC3CCCN3C(=O)c3cnn4cccnc34)C(=O)OC12C (stereo not shown) [10.51] |  |  |  |  |  | 1 µg/mL (≈ 1.19 µM) | >64.00 µg/mL | <0.06 µg/mL | <0.06 µg/mL | 0.5 µg/mL (≈ 0.595 µM) |
| CCCC(c1ccnc2ccccc12)N1CC(N2C(=O)OC3(C)C(CC)OC(=O)C(C)C(=O)C(C)C(OC4OC(C)CC(N(C)C)C4O)C(C)(OC)CC(C)C(=O)C(C)C23)C1 (stereo not shown) [Example 1.65, 3-descladinosyl-11,12-dideoxy-6-O-methyl-3-oxo-12,11-(oxycarbonyl-(1-(1-(quinolin4-yl)-butyl)-azetidin-3-yl)-imino)-erythromycin A] | 1 µg/mL (≈ 1.17 µM) | 8 µg/mL (≈ 9.4 µM) | <0.06 µg/mL | <0.06 µg/mL | <0.06 µg/mL |  |  |  |  |  |
| CC[C@H]1OC(=O)[C@H](C)C(=O)[C@H](C)[C@@H](O[C@@H]2O[C@H](C)C[C@H](N(C)C)[C@H]2O)[C@](C)(OC)C[C@@H](C)C(=O)[C@H](C)[C@H]2N(CC3(O)CN(S(=O)(=O)c4ccc5[nH]c(=O)oc5c4)C3)C(=O)O[C@]12C [7.16] |  |  |  |  |  | 1 µg/mL (≈ 1.12 µM) | >64.00 µg/mL | <0.06 µg/mL | 64 µg/mL (≈ 71.5 µM) | 4 µg/mL (≈ 4.47 µM) |
| CCC1OC(=O)C(C)C(=O)C(C)C(OC2OC(C)CC(N(C)C)C2O)C(C)(OC)CC(C)C(=O)C(C)C2N(CC3CCCN3C(=O)c3ccnc4ccccc34)C(=O)OC12C (stereo not shown) [12.08] |  |  |  |  |  | 16 µg/mL (≈ 18.8 µM) | >64.00 µg/mL | <0.06 µg/mL | 1 µg/mL (≈ 1.18 µM) | 2 µg/mL (≈ 2.35 µM) |
| CCC1OC(=O)C(C)C(=O)C(C)C(OC2OC(C)CC(N(C)C)C2O)C(C)(OC)CC(C)C(=O)C(C)C2N(C3CN(S(=O)(=O)c4ccc(Oc5ccncc5)cc4)C3)C(=O)OC12C (stereo not shown) [Example 3.26] | 4 µg/mL (≈ 4.44 µM) | 64 µg/mL (≈ 71 µM) | <0.06 µg/mL | <0.06 µg/mL | 8 µg/mL (≈ 8.88 µM) |  |  |  |  |  |
| CCC1OC(=O)C(C)C(=O)C(C)C(OC2OC(C)CC(N(C)C)C2O)C(C)(OC)CC(C)C(=O)C(C)C2N(CC3CCCN3C(=O)c3ccc4nccnc4c3)C(=O)OC12C.O=CO (stereo not shown) [10.12] |  |  |  |  |  | 2 µg/mL | 32 µg/mL | <0.06 µg/mL | <0.06 µg/mL | 0.12 µg/mL |
| CCC1OC(=O)C(C)C(=O)C(C)C(OC2OC(C)CC(N(C)C)C2O)C(C)(OC)CC(C)C(=O)C(C)C2N(C3CN(S(=O)(=O)c4ccc(-c5nnco5)cc4)C3)C(=O)OC12C (stereo not shown) [Example 3.56, 3-descladinosyl-11,12-dideoxy-6-O-methyl-3-oxo-12,11-(oxycarbonyl-(1-(4-(1,3,4-oxadiazol-2-yl)benzenesulfonyl)-azetidin-3-yl)-imino)-erythromycin A] | 1 µg/mL (≈ 1.14 µM) | 0.5 µg/mL (≈ 0.571 µM) | <0.06 µg/mL | <0.06 µg/mL | <0.06 µg/mL |  |  |  |  |  |
| CCOc1ccc(S(=O)(=O)N2CC(N3C(=O)OC4(C)C(CC)OC(=O)C(C)C(=O)C(C)C(OC5OC(C)CC(N(C)C)C5O)C(C)(OC)CC(C)C(=O)C(C)C34)C2)cc1OC (stereo not shown) [Example 3.105, 3-descladinosyl-11,12-dideoxy-6-O-methyl-3-oxo-12,11-(oxycarbonyl-(1-(4-ethoxy-3-methoxybenzene-1-sulfonyl)-azetidin-3-yl)-imino)-erythromycin A] | 0.25 µg/mL (≈ 0.283 µM) | 1 µg/mL (≈ 1.13 µM) | <0.063 µg/mL | <0.063 µg/mL | <0.063 µg/mL |  |  |  |  |  |
| CCC1OC(=O)C(C)C(=O)C(C)C(OC2OC(C)CC(N(C)C)C2O)C(C)(OC)CC(C)C(=O)C(C)C2N(CC3CCCN3Cc3cccnc3OC)C(=O)OC12C (stereo not shown) [12.02] |  |  |  |  |  | 16 µg/mL (≈ 19.6 µM) | >64.00 µg/mL | <0.06 µg/mL | 8 µg/mL (≈ 9.79 µM) | 8 µg/mL (≈ 9.79 µM) |
| CCC1OC(=O)C(C)C(=O)C(C)C(OC2OC(C)CC(N(C)C)C2O)C(C)(OC)CC(C)C(=O)C(C)C2N(CC3CN(Cc4ccn[nH]4)C3)C(=O)OC12C (stereo not shown) [4.09] | 0.12 µg/mL (≈ 0.157 µM) | >64.00 µg/mL | <0.06 µg/mL | 32 µg/mL (≈ 42 µM) | 0.5 µg/mL (≈ 0.656 µM) |  |  |  |  |  |
| CC[C@H]1OC(=O)[C@H](C)C(=O)[C@H](C)[C@@H](O[C@@H]2O[C@H](C)C[C@H](N(C)C)[C@H]2O)[C@](C)(OC)C[C@@H](C)C(=O)[C@H](C)[C@H]2N(CC3(O)CN(C(=O)c4nc5ccccc5[nH]4)C3)C(=O)O[C@]12C.O=CO [7.28] |  |  |  |  |  | 2 µg/mL | >64.00 µg/mL | <0.06 µg/mL | <0.06 µg/mL | 0.25 µg/mL |
| CCC1OC(=O)C(C)C(=O)C(C)C(OC2OC(C)CC(N(C)C)C2O)C(C)(OC)CC(C)C(=O)C(C)C2N(C3CN(Cc4ccnc5ncsc45)C3)C(=O)OC12C (stereo not shown) [Example 1.35, 3-descladinosyl-11,12-dideoxy-6-O-methyl-3-oxo-12,11-(oxycarbonyl-(1-((thiazolo[4,5-b]pyridin-7-yl)-methyl)-azetidin-3-yl)-imino)erythromycin A] | 1 µg/mL (≈ 1.23 µM) | 4 µg/mL (≈ 4.9 µM) | <0.06 µg/mL | <0.06 µg/mL | 0.12 µg/mL (≈ 0.147 µM) |  |  |  |  |  |
